Assay results reported in patent US6013795A, “Alpha-branched fluoroalkylcarbonyl fluorides and their derivatives” (3M Innovative Properties Company, priority 1996, dated 2000).

Experiments:
[1] = surface tension of aqueous surfactant solutions and critical micelle concentration (K-12 Processor Tensiometer); assay type: physicochemical; conditions: deionized water
Description: Critical Micelle Concentration (CMC): The critical micelle concentration is defined as the concentration at which further surface tension is no longer lowered with increasing levels of surfactant. […] Surface tension is then plotted vs. log concentration and the data points are connected. The resulting curve has a nearly horizontal flat portion at concentrations above the CMC and has a negative steep slope at concentrations below the CMC. The CMC is defined as the lowest surfactant concentration in the horizontal flat portion of the curve.
(§1) Then the critical micelle concentration (CMC) was determined for each surfactant.
as §1

[2] = thermal degradation in water and characterization of volatile products; assay type: physicochemical
Description: The thermal degradation of an aqueous α-branched perfluoroalkylcarbonyl fluoride and the characterization of the products produced from the degradation were carried out using the following procedure. […] 5.7 g of volatile degradation products were then collected by azeotropic distillation using a Dean-Stark apparatus.
The thermal degradation of C7 F15 CF(CF3)COF (from Example A4) dispersed in water was also carried out by heating the aqueous mixture for several hours at approximately 80° C.

O=C(O)C(F)(C(F)(F)F)C(F)(F)C(F)(F)C(F)(F)C(F)(F)C(F)(F)F (stereo not shown) [Example M21, C5 F11 CF(CF3)COO^- K^+]
CMC ([1]; carboxylate salts, Table 5): > 10000 ppm
Surf. Tens. at the CMC ([1]; carboxylate salts, Table 5): 22.5 dynes/cm

C[N+](C)(CCO)CCCNC(=O)C(F)(C(F)(F)F)C(F)(F)C(F)(F)C(F)(F)C(F)(F)C(F)(F)F (stereo not shown) [Example F3]
CMC ([1]; Table 3): 1000 ppm
Surf. Tens. at the CMC ([1]; Table 3): 17.0 dynes/cm

O=C(O)C(F)(C(F)(F)F)C(F)(F)C(F)(F)C(F)(F)C(F)(F)C(F)(F)C(F)(F)C(F)(F)F (stereo not shown) [Example M30, C7 F15 CF(CF3)COO^- 1/2 [H3 N^+ C2 H4 NHC2 H4 N^+ H3]]
CMC ([1]; carboxylate salts, Table 5): 3000 ppm
Surf. Tens. at the CMC ([1]; carboxylate salts, Table 5): 16.2 dynes/cm

O=C(NCCOC(=O)C(F)(C(F)(F)F)C(F)(F)C(F)(F)C(F)(F)C(F)(F)C(F)(F)C(F)(F)F)c1cc[n+]([O-])cc1 (stereo not shown) [Example E11]
CMC ([1]; Table 3): 1000 ppm
Surf. Tens. at the CMC ([1]; Table 3): 15.5 dynes/cm

C[N+](C)([O-])CCCNC(=O)C(F)(C(F)(F)F)C(F)(F)C(F)(F)C(F)(F)C(F)(F)C(F)(F)C(F)(F)C(F)(F)C(F)(F)C(F)(F)C(F)(F)F (stereo not shown) [Example E5, C10 F21 CF(CF3)CONH(CH2)3 N^+ (CH3)2 O^-]
CMC ([1]; Table 3): 500 ppm
Surf. Tens. at the CMC ([1]; Table 3): 17.1 dynes/cm

C[N+](C)(CCCN(CCC[N+](C)(C)CCC(=O)[O-])C(=O)C(F)(C(F)(F)F)C(F)(F)C(F)(F)C(F)(F)C(F)(F)C(F)(F)C(F)(F)C(F)(F)F)CCC(=O)[O-] (stereo not shown) [Example K4]
CMC ([1]; Table 3): 100 ppm
Surf. Tens. at the CMC ([1]; Table 3): 23.6 dynes/cm

O=C(O)C(F)(C(F)(F)F)C(F)(F)C(F)(F)C(F)(F)C(F)(F)C(F)(F)C(F)(F)F (stereo not shown) [Example M16, C6 F13 CF(CF3)COO^- H4 N^+]
CMC ([1]; carboxylate salts, Table 5): 8000 ppm
Surf. Tens. at the CMC ([1]; carboxylate salts, Table 5): 17.9 dynes/cm

O=C(O)C(F)(C(F)(F)F)C(F)(F)C(F)(F)C(F)(F)C(F)(F)C(F)(F)C(F)(F)C(F)(F)F (stereo not shown) [Example M27, C7 F15 CF(CF3)COO^- Li^+]
CMC ([1]; carboxylate salts, Table 5): 3500 ppm
Surf. Tens. at the CMC ([1]; carboxylate salts, Table 5): 24.1 dynes/cm

O=C(O)C(F)(C(F)(F)F)C(F)(F)C(F)(F)C(F)(F)C(F)(F)C(F)(F)C(F)(F)C(F)(F)F (stereo not shown) [Example M26, C7 F15 CF(CF3)COO^- Na^+]
CMC ([1]; carboxylate salts, Table 5): 3000 ppm
Surf. Tens. at the CMC ([1]; carboxylate salts, Table 5): 19.4 dynes/cm

O=C(O)C(F)(C(F)(F)F)C(F)(F)C(F)(F)C(F)(F)C(F)(F)C(F)(F)C(F)(F)C(F)(F)F (stereo not shown) [Example M23, C7 F15 CF(CF3)COO^- K^+]
CMC ([1]; carboxylate salts, Table 5): 2500 ppm
Surf. Tens. at the CMC ([1]; carboxylate salts, Table 5): 15.0 dynes/cm

O=C(NCCOC(=O)C(F)(C(F)(F)F)C(F)(F)C(F)(F)C(F)(F)C(F)(F)C(F)(F)C(F)(F)C(F)(F)F)c1cc[n+]([O-])cc1 (stereo not shown) [Example E10]
CMC ([1]; Table 3): 400 ppm
Surf. Tens. at the CMC ([1]; Table 3): 14.5 dynes/cm

O=C(OCCc1cccc[n+]1[O-])C(F)(C(F)(F)F)C(F)(F)C(F)(F)C(F)(F)C(F)(F)C(F)(F)C(F)(F)F (stereo not shown) [Example E12]
CMC ([1]; Table 3): 8000 ppm
Surf. Tens. at the CMC ([1]; Table 3): 18.3 dynes/cm

C[N+](C)([O-])CCCN(CCO)C(=O)C(F)(C(F)(F)F)C(F)(F)C(F)(F)C(F)(F)C(F)(F)C(F)(F)C(F)(F)C(F)(F)F (stereo not shown) [Example E8, C7 F15 CF(CF3)CON(C2 H4 OH)(CH2)3 N^+ (CH3)2 O^-]
Surf. Tens. at the CMC ([1]; Table 3): 16.6 dynes/cm

O=C(OCCc1cccc[n+]1[O-])C(F)(C(F)(F)F)C(F)(F)C(F)(F)C(F)(F)C(F)(F)C(F)(F)C(F)(F)C(F)(F)F (stereo not shown) [Example E13]
CMC ([1]; Table 3): 6000 ppm
Surf. Tens. at the CMC ([1]; Table 3): 15.0 dynes/cm

O=C(O)C(F)(C(F)(F)F)C(F)(F)C(F)(F)C(F)(F)C(F)(F)C(F)(F)C(F)(F)C(F)(F)C(F)(F)C(F)(F)C(F)(F)F (stereo not shown) [Example M18, C10 F21 CF(CF3)COO^- H4 N^+]
CMC ([1]; carboxylate salts, Table 5): 600 ppm
Surf. Tens. at the CMC ([1]; carboxylate salts, Table 5): 14.8 dynes/cm

O=C(NCCC[N+]1([O-])CCOCC1)C(F)(C(F)(F)F)C(F)(F)C(F)(F)C(F)(F)C(F)(F)C(F)(F)C(F)(F)C(F)(F)F (stereo not shown) [Example E9]
solubility remark ([1]; Table 3): low solub.

O=C(O)C(F)(C(F)(F)F)C(F)(F)C(F)(F)C(F)(F)C(F)(F)C(F)(F)C(F)(F)F (stereo not shown) [Example M25, C6 F13 CF(CF3)COO^- Na^+]
CMC ([1]; carboxylate salts, Table 5): 10000 ppm
Surf. Tens. at the CMC ([1]; carboxylate salts, Table 5): 19.8 dynes/cm

O=C(F)C(F)(C(F)(F)F)C(F)(F)C(F)(F)C(F)(F)C(F)(F)C(F)(F)C(F)(F)C(F)(F)F (stereo not shown) [Example A1, C7 F15 CF(CF3)COF]
monohydride C7 F15 CFHCF3 in degradation products ([2]; deionized water, refluxed 2 hours): 85%
olefin C6 F13 CF=CFCF3 in degradation products ([2]; deionized water, refluxed 2 hours, cis/trans mixture): 15%
volatile degradation products collected ([2]; from 8 g, water, refluxed 2 hours): 5.7 g
volatile products formed ([2]; water, several hours at approximately 80° C.): The same volatile products were formed

C[n+]1ccc(C(=O)NCCOC(=O)C(F)(C(F)(F)F)C(F)(F)C(F)(F)C(F)(F)C(F)(F)C(F)(F)C(F)(F)C(F)(F)F)cc1 (stereo not shown) [Example F1]
CMC ([1]; Table 3): 500 ppm
Surf. Tens. at the CMC ([1]; Table 3): 15.0 dynes/cm

C[n+]1ccc(C(=O)NCCOC(=O)C(F)(C(F)(F)F)C(F)(F)C(F)(F)C(F)(F)C(F)(F)C(F)(F)C(F)(F)F)cc1 (stereo not shown) [Example F2]
CMC ([1]; Table 3): 30 ppm
Surf. Tens. at the CMC ([1]; Table 3): 15.5 dynes/cm

C[N+](C)([O-])CCCNC(=O)C(F)(C(F)(F)F)C(F)(F)C(F)(F)C(F)(F)C(F)(F)C(F)(F)F (stereo not shown) [Example E2, C5 F11 CF(CF3)CONH(CH2)3 N^+ (CH3)2 O^-]
CMC ([1]; Table 3): 500 ppm
Surf. Tens. at the CMC ([1]; Table 3): 17.5 dynes/cm

O=C(O)C(F)(C(F)(F)F)C(F)(F)C(F)(F)C(F)(F)C(F)(F)C(F)(F)C(F)(F)C(F)(F)F (stereo not shown) [Example M20, C7 F15 CF(CF3)COO^- H3 N^+ C2 H4 OH]
CMC ([1]; carboxylate salts, Table 5): 500 ppm
Surf. Tens. at the CMC ([1]; carboxylate salts, Table 5): 15.0 dynes/cm

O=C(NCCC[N+]1(CCO)CCOCC1)C(F)(C(F)(F)F)C(F)(F)C(F)(F)C(F)(F)C(F)(F)C(F)(F)C(F)(F)C(F)(F)F (stereo not shown) [Example F5]
CMC ([1]; Table 3): 1000 ppm
Surf. Tens. at the CMC ([1]; Table 3): 20.8 dynes/cm

C6 F13 CF(CF3)CON(C3 H6 SO3^-)(CH2)3 N^+ (CH3)2 H [Example K2]
CMC ([1]; Table 3): 500 ppm
Surf. Tens. at the CMC ([1]; Table 3): 20.3 dynes/cm

C[N+](C)([O-])CCCNC(=O)C(F)(C(F)(F)F)C(F)(F)C(F)(F)C(F)(F)C(F)(F)C(F)(F)C(F)(F)F (stereo not shown) [Example E3, C6 F13 CF(CF3)CONH(CH2)3 N^+ (CH3)2 O^-]
CMC ([1]; Table 3): 100 ppm
Surf. Tens. at the CMC ([1]; Table 3): 16.6 dynes/cm

CN(C)CCCN(CCCN(C)C)C(=O)C(F)(C(F)(F)F)C(F)(F)C(F)(F)C(F)(F)C(F)(F)C(F)(F)C(F)(F)C(F)(F)F (stereo not shown) [Example F9, C7 F15 CF(CF3)CON[C3 H6 N^+ (CH3)2 H]2 2[^- OOCCH3]]
CMC ([1]; Table 3): 1000 ppm
Surf. Tens. at the CMC ([1]; Table 3): 22.0 dynes/cm

O=C(O)C(F)(C(F)(F)F)C(F)(F)C(F)(F)C(F)(F)C(F)(F)C(F)(F)C(F)(F)C(F)(F)C(F)(F)F (stereo not shown) [Example M24, C8 F17 CF(CF3)COO^- K^+]
CMC ([1]; carboxylate salts, Table 5): 3000 ppm
Surf. Tens. at the CMC ([1]; carboxylate salts, Table 5): 16.4 dynes/cm

C[N+](C)([O-])CCCNC(=O)C(F)(C(F)(F)C(F)(F)C(F)(F)F)C(F)(F)C(F)(F)C(F)(F)C(F)(F)C(F)(F)C(F)(F)C(F)(F)F (stereo not shown) [Example E7, C7 F15 CF(C3 F7)CONH(CH2)3 N^+ (CH3)2 O^-]
solubility remark ([1]; Table 3): low solub.

C[N+](C)(CCO)CCCNC(=O)C(F)(C(F)(F)F)C(F)(F)C(F)(F)C(F)(F)C(F)(F)C(F)(F)C(F)(F)C(F)(F)F (stereo not shown) [Example F4]
CMC ([1]; Table 3): 300 ppm
Surf. Tens. at the CMC ([1]; Table 3): 19.0 dynes/cm

C8 F17 CF(CF3)CO(OCH2 CH2)16 OCH3 [Example J1]
CMC ([1]; Table 3): 150 ppm
Surf. Tens. at the CMC ([1]; Table 3): 22 dynes/cm

O=C([O-])CC[N+]1(CCCNC(=O)C(F)(C(F)(F)F)C(F)(F)C(F)(F)C(F)(F)C(F)(F)C(F)(F)C(F)(F)C(F)(F)F)CCOCC1 (stereo not shown) [Example K3]
CMC ([1]; Table 3): 1000 ppm
Surf. Tens. at the CMC ([1]; Table 3): 19.2 dynes/cm

C[N+](C)([O-])CCCNC(=O)C(F)(C(F)(F)F)C(F)(F)C(F)(F)C(F)(F)C(F)(F)C(F)(F)C(F)(F)C(F)(F)C(F)(F)F (stereo not shown) [Example E4, C8 F17 CF(CF3)CONH(CH2)3 N^+ (CH3)2 O^-]
CMC ([1]; Table 3): 20 ppm
Surf. Tens. at the CMC ([1]; Table 3): 16.5 dynes/cm

O=C(O)C(F)(C(F)(F)F)C(F)(F)C(F)(F)C(F)(F)C(F)(F)C(F)(F)C(F)(F)C(F)(F)F (stereo not shown) [Example M1, C7 F15 CF(CF3)COOH]
degradation products in aqueous solution ([2]; aqueous solution, similar way): the same monohydride and olefin

C[N+](C)(CCCNC(=O)C(F)(C(F)(F)F)C(F)(F)C(F)(F)C(F)(F)C(F)(F)C(F)(F)C(F)(F)C(F)(F)F)CCC(=O)[O-] (stereo not shown) [Example K1, C7 F15 CF(CF3)CONH(CH2)3 N^+ (CH3)2 C2 H4 COO^-]
Surf. Tens. at the CMC ([1]; Table 3): 16.6 dynes/cm

O=C(O)C(F)(C(F)(F)F)C(F)(F)C(F)(F)C(F)(F)C(F)(F)C(F)(F)C(F)(F)F (stereo not shown) [Example M22, C6 F13 CF(CF3)COO^- K^+]
CMC ([1]; carboxylate salts, Table 5): 10000 ppm
Surf. Tens. at the CMC ([1]; carboxylate salts, Table 5): 17.5 dynes/cm

O=C(O)C(F)(C(F)(F)F)C(F)(F)C(F)(F)C(F)(F)C(F)(F)C(F)(F)C(F)(F)C(F)(F)C(F)(F)F (stereo not shown) [Example M17, C8 F17 CF(CF3)COO^- H4 N^+]
CMC ([1]; carboxylate salts, Table 5): 2300 ppm
Surf. Tens. at the CMC ([1]; carboxylate salts, Table 5): 14.7 dynes/cm

O=C(O)C(F)(C(F)(F)F)C(F)(F)C(F)(F)C(F)(F)C(F)(F)C(F)(F)F (stereo not shown) [Example M15, C5 F11 CF(CF3)COO^- H4 N^+]
CMC ([1]; carboxylate salts, Table 5): > 10000 ppm
Surf. Tens. at the CMC ([1]; carboxylate salts, Table 5): 22.1 dynes/cm

C[N+](C)([O-])CCCNC(=O)C(F)(C(F)(F)F)C(F)(F)C(F)(F)C(F)(F)C(F)(F)C(F)(F)C(F)(F)C(F)(F)F (stereo not shown) [Example E1, C7 F15 CF(CF3)CONH(CH2)3 N^+ (CH3)2 O^-]
CMC ([1]; Table 3): 20 ppm
Surf. Tens. at the CMC ([1]; Table 3): 16.3 dynes/cm
